What all share (format): cell-based
In one assay the target is T1, human TLR9 (Homo sapiens, UniProt Q9NR96).
T1 construct: host or cells: HEK-Blue cells (HEK293-derived reporter line)
T1 sequence (Q9NR96 26-1032): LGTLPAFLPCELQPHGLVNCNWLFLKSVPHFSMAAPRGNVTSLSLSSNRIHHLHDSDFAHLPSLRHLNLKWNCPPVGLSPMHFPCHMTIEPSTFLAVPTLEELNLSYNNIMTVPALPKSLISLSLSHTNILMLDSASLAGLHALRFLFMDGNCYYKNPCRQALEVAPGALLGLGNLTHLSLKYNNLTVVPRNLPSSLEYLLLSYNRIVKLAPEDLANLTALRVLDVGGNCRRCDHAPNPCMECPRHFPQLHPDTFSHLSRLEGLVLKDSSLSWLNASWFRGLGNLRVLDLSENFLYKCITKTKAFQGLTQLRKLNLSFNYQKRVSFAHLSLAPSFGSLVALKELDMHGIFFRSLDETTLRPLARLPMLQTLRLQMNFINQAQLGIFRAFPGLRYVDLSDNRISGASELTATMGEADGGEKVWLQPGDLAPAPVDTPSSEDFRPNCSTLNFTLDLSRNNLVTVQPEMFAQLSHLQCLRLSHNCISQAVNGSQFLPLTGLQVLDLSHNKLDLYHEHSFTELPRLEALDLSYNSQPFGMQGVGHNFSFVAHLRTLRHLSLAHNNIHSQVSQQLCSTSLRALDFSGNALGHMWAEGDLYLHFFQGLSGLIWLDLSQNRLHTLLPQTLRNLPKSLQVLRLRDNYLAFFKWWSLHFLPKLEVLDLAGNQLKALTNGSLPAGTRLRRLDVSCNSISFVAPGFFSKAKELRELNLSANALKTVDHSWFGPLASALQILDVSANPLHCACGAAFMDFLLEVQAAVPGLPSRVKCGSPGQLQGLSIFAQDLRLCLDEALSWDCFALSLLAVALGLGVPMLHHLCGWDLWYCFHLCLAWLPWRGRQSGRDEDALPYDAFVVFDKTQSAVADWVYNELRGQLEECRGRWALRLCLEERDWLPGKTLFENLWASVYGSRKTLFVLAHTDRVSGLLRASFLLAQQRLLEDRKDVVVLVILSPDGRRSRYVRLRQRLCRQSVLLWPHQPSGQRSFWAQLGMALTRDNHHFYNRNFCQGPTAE
Kind of assay: TLR9 inhibition reporter assay (HEK-Blue cells, SEAP reporter, ODN2006 stimulation). The following applies: HEK-Blue cells overexpressing human TLR9, SEAP reporter, ODN2006 5 nM. The method in brief: (§1)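 After 22 h at 37 °C, SEAP secretion was measured from human TLR7-, TLR8- or TLR9-expressing HEK-Blue reporter cells given compound (0.05 nM–50 μM) 30 min before agonist: 7.5 μM gardiquimod, 15.9 μM R848 or 5 nM ODN2006 respectively. Percent inhibition referenced to agonist-plus-DMSO and known-inhibitor wells.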

The target in another assay is T2, human TLR8 (Homo sapiens, UniProt Q9NR97).
T2 construct: host or cells: HEK-Blue cells (HEK293-derived reporter line)
T2 sequence (Q9NR97 27-1041): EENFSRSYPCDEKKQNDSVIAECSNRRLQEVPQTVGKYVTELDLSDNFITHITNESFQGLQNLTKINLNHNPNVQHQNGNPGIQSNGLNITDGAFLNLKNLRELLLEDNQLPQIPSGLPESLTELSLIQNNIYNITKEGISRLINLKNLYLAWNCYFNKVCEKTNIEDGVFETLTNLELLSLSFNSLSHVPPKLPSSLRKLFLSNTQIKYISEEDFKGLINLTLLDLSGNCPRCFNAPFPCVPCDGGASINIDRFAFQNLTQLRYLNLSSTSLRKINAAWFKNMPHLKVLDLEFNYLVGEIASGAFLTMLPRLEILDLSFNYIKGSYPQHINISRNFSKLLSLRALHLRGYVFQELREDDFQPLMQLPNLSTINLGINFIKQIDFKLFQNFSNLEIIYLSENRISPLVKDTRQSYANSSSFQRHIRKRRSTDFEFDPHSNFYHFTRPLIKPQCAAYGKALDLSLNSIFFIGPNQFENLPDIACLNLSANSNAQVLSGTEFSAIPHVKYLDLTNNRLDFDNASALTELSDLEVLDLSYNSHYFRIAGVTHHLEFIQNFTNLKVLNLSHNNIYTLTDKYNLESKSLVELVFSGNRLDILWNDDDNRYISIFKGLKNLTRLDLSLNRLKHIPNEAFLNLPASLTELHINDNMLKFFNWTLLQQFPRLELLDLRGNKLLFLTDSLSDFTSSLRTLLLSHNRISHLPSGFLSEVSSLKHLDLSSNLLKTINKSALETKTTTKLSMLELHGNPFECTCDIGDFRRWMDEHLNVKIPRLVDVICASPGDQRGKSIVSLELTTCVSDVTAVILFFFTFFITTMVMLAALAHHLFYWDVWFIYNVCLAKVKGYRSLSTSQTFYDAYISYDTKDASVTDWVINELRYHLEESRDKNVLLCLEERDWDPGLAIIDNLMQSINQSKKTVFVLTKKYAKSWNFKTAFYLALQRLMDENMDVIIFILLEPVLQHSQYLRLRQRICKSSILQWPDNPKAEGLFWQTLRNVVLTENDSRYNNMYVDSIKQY
Briefly: TLR8 inhibition reporter assay (HEK-Blue cells, SEAP reporter, R848 stimulation). Particulars: HEK-Blue cells overexpressing human TLR8, SEAP reporter, R848 15.9 μM. The method in brief:
as §1

The next assay deals with T3, human TLR7 (Homo sapiens, UniProt Q9NYK1).
T3 construct: host or cells: HEK-Blue cells (HEK293-derived reporter line)
T3 sequence (Q9NYK1 27-1049): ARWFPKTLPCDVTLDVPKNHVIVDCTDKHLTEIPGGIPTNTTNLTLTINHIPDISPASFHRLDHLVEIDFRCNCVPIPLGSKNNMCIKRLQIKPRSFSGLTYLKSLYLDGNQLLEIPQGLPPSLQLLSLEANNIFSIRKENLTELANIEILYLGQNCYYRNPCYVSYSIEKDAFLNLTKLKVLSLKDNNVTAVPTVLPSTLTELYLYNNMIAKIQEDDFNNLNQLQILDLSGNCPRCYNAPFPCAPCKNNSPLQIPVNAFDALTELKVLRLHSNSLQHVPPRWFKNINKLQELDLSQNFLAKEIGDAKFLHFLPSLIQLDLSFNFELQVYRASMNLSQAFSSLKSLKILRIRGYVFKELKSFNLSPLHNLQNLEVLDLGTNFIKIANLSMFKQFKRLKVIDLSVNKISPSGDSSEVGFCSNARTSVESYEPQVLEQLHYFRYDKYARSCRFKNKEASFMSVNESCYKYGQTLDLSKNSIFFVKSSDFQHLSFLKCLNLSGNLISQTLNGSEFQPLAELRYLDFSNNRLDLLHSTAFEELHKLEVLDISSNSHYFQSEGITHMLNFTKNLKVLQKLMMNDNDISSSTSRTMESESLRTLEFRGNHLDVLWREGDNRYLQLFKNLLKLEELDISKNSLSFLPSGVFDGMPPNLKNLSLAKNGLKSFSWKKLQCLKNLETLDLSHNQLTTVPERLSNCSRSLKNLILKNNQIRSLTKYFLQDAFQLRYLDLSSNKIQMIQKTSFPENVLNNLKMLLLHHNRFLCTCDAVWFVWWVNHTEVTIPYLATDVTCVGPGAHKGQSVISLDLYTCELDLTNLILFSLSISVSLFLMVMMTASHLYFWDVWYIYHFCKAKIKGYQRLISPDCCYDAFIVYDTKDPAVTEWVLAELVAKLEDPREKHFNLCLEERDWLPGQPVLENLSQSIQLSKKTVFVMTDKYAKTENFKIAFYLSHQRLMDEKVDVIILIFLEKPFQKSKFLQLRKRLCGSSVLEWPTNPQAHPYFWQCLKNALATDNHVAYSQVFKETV
Briefly: TLR7 inhibition reporter assay (HEK-Blue cells, SEAP reporter, gardiquimod stimulation). The following applies: HEK-Blue cells overexpressing human TLR7, SEAP reporter, gardiquimod 7.5 μM. The method in brief: as §1

`CCN(C)C(=O)c1cn2cc(-c3[nH]c4ccc(C5CCNCC5)cc4c3C(C)C)cc(C)c2n1` [Example 266, N-ethyl-6-(3-isopropyl-5-(piperidin-4-yl)-1H-indol-2-yl)-N,8-dimethylimidazo[1,2-a]pyridine-2-carboxamide]: the values for the IC50 on human TLR9, on human TLR8 and against human TLR7 were 1000 to 50000 nM, below 100 nM and below 100 nM, respectively.
On to `CNC(=O)CN1CCC(c2ccc3[nH]c(-c4cc(C)n5ncnc5c4)c(C(C)C)c3c2)CC1` [Example 325, 2-(4-(3-isopropyl-2-(5-methyl-[1,2,4]triazolo [1,5-a]pyridin-7-yl)-1H-indol-5-yl)piperidin-1-yl)-N-methylacetamide], for which the half-inhibitory concentration (IC50) is 1000 to 50000 nM against human TLR9, below 100 nM on human TLR8 and below 100 nM on human TLR7.
With `COc1cc(-c2[nH]c3ccc(C4CCNCC4)cc3c2C(C)C)cc2nc(C)nn12` [Example 155, 7-(3-isopropyl-5-(piperidin-4-yl)-1H-indol-2-yl)-5-methoxy-2-methyl-[1,2,4]triazolo [1,5-a]pyridine], the IC50 against human TLR9 is 1000 to 50000 nM; at human TLR8 it was below 100 nM; against human TLR7, below 100 nM.
Consider `CNCCN1CCC(c2ccc3[nH]c(-c4ccc5nc(C)cn5c4)c(C(C)C)c3c2)CC1` [Example 676, 2-(4-(3-isopropyl-2-(2-methylimidazo[1,2-a]pyridin-6-yl)-1H-indol-5-yl)piperidin-1-yl)-N-methylethan-1-amine], for which the half-inhibitory concentration (IC50) was 100 to 1000 nM at human TLR9, 100 to 1000 nM against human TLR8 and below 100 nM against human TLR7.
For the molecule `CC(C)c1c(-c2ccnc3[nH]ncc23)[nH]c2ccc(C3CCN(C(=O)CS(C)(=O)=O)CC3)cc12` [Example 614, 1-(4-(3-isopropyl-2-(1H-pyrazolo[3,4-b]pyridin-4-yl)-1H-indol-5-yl)piperidin-1-yl)-2-(methylsulfonyl)ethan-1-one], the 50% inhibitory concentration (IC50) against human TLR9 was above 50000 nM; on human TLR8, below 100 nM; against human TLR7, below 100 nM.
On to `Cc1cc(-c2[nH]c3ccc(C4CCN(C(=O)CN5C[C@H]6CC[C@@H](C5)O6)CC4)cc3c2C(C)C)cn2nnnc12` [Example 484, 2-((1R,5S)-8-oxa-3-azabicyclo[3.2.1]octan-3-yl)-1-(4-(3-isopropyl-2-(8-methyltetrazolo[1,5-a]pyridin-6-yl)-1H-indol-5-yl)piperidin-1-yl)ethan-1-one], for which the IC50 was 1000 to 50000 nM against human TLR9, below 100 nM on human TLR8 and below 100 nM against human TLR7.
For the molecule `CNC(=O)CN1CCC(c2ccc3[nH]c(-c4cc(C)c5ncsc5n4)c(C(C)C)c3c2)CC1` [Example 406, 2-(4-(3-isopropyl-2-(7-methylthiazolo[5,4-b]pyridin-5-yl)-1H-indol-5-yl)piperidin-1-yl)-N-methylacetamide], the IC50 was 1000 to 50000 nM at human TLR9, below 100 nM at human TLR8 and below 100 nM against human TLR7.
As to `CCc1c(-c2ccc3onc(N)c3c2)[nH]c2ccc(C3CCNCC3)cc12` [Example 95, 5-(3-ethyl-5-(piperidin-4-yl)-1H-indol-2-yl)benzo[d]isoxazol-3-amine], the figures for the IC50 against human TLR9, against human TLR8 and against human TLR7 were 1000 to 50000 nM, 100 to 1000 nM and 1000 to 50000 nM, respectively.
On to `CN(C)CC(=O)N1CCC(c2ccc3[nH]c(-c4cc(F)c5nccn5c4)c(CC(F)F)c3c2)CC1` [Example 546, 1-(4-(3-(2,2-difluoroethyl)-2-(8-fluoroimidazo[1,2-a]pyridin-6-yl)-1H-indol-5-yl)piperidin-1-yl)-2-(dimethylamino)ethan-1-one], for which the concentration for half-maximal inhibition (IC50) against human TLR9 is 100 to 1000 nM; against human TLR8, 100 to 1000 nM; at human TLR7 it was below 100 nM.
Turning to `Cc1nc2c(-c3[nH]c4ccc(C5CCN(CC(C)(C)O)CC5)cc4c3C(C)C)ccc(C)n2n1` [Example 768, 1-(4-(2-(2,5-dimethyl-[1,2,4]triazolo[1,5-a]pyridin-8-yl)-3-isopropyl-1H-indol-5-yl)piperidin-1-yl)-2-methylpropan-2-ol], the 50% inhibitory concentration (IC50) was 1000 to 50000 nM against human TLR9, 1000 to 50000 nM at human TLR8 and above 3130 nM on human TLR7.
For the molecule `CC(C)c1c(-c2ccc3cnnn3c2)[nH]c2ccc(C3CCN(Cc4ncn(C)n4)CC3)cc12` [Example 879, 6-(3-isopropyl-5-(1-((1-methyl-1H-1,2,4-triazol-3-yl)methyl)piperidin-4-yl)-1H-indol-2-yl)-[1,2,3]triazolo[1,5-a]pyridine], the IC50 against human TLR9 is 1000 to 50000 nM; against human TLR8, 100 to 1000 nM; against human TLR7 it was 100 to 1000 nM.
For the molecule `Cc1c(-c2ccnc3[nH]ccc23)[nH]c2ccc(C3CCN(C4CCN(C(C)C)CC4)CC3)cc12` [Example 813, 4-(5-(1′-isopropyl-[1,4′-bipiperidin]-4-yl)-3-methyl-1H-indol-2-yl)-1H-pyrrolo[2,3-b]pyridine], the IC50 against human TLR9, against human TLR8 and at human TLR7 was below 100 nM in each case.

Source of the values: patent US11739098B2 (BRISTOL-MYERS SQUIBB COMPANY, priority 2017, dated 2023).
